We go through two molecules from publication PMC12395807, “Chemoreceptor family in plant-associated bacteria responds preferentially to the plant signal molecule glycerol 3-phosphate” (Genome Biology, 2025).

In assay [1] the test system is P. atrosepticum SCRI1043 pacP mutant (MpacP). Put plainly: Quantitative capillary chemotaxis assay, pacP mutant. The following applies: 1 mM ligand. The format is cell-based, Pectobacterium atrosepticum. From the text:
A mutant defective in ECA_RS12390 was constructed by homologous recombination using a derivative plasmid of the suicide vector pKNG101. Briefly, a 0.5-kb fragment corresponding to the region encoding the LBD of ECA_RS12390 was amplified by the primers specified in Additional file 2: Table S2 and cloned into pGEM®-T. The resulting plasmid pGEM::ECA_RS12390 was digested with XmaI, and the 0.5-kb insert was cloned into the same site at pKNG101 to generate pKNG101::ECA_RS12390. This plasmid was subsequently transformed into P. atrosepticum SRCI1043 via biparental conjugation using E. coli β2163. All the plasmids were verified by PCR and sequencing. The pETb(+) derivatives encoding the LBD of the different receptors analyzed in this study (Table 1) were purchased from GeneScript. Plasmid pBBR-ECA_RS12390 was constructed by amplifying the pacP gene using the primers detailed in Additional file 2: Table S2 and cloning of the PCR product into the NdeI/BamHI sites of pBBR1MCS2_START. The sequences of the proteins analyzed in this study are provided in Additional file 2: Table S3. The ECA_RS12390 nucleotide sequence is available in the published genome of P. atrosepticum SCRI1043 [60].
(§1) Overnight cultures of P. atrosepticum SCRI1043 were grown at 30 °C in minimal medium. At an OD660 of 0.4–0.45, the cultures were washed twice with chemotaxis buffer (50 mM K2HPO4/KH2PO4, 20 μM EDTA, 0.05% (v/v) glycerol, pH 7.0) and diluted to an OD660 of 0.1 in the same buffer. Subsequently, 230 μL of the resulting bacterial suspension was placed into the wells of 96-well plates. One-microliter capillary tubes (P1424, Microcaps; Drummond Scientific) were heat-sealed at one end and filled with either chemotaxis buffer (negative control) or chemotaxis buffer containing PacP ligands at a concentration of 1 mM. The capillaries were immersed in the bacterial suspensions at their open ends. After 30 min at room temperature, the capillaries were removed from the bacterial suspensions, rinsed with sterile water, and the contents were expelled into 1 mL of 40 mM K2HPO4, 15 mM KH2PO4. Serial dilutions were plated onto minimal medium supplemented with 15 mM glucose as the carbon source. The number of colony-forming units was determined after 36 h of incubation at 30 °C. In all the cases, the data were corrected with the number of cells that swam into the buffer-containing capillaries.

The target in assay [2] is ligand binding domain of the chemoreceptor ECA_RS12390 (PacP-LBD, R1, WP_011094075.1) (Pectobacterium atrosepticum, UniProt Q6D464). Put plainly: ITC binding to PacP-LBD. Conditions: 15 °C, Nb = no binding. How it is done: (§2) Plasmids for the overexpression of the different proteins were transformed into E. coli BL21(DE3). The resulting strains were grown under continuous stirring (200 rpm) at 30 °C in 2-L Erlenmeyer flasks containing 500 mL of LB medium supplemented with 50 μg/mL kanamycin. At an OD660 of 0.5, protein expression was induced by the addition of 0.1 mM isopropyl β-D-1-thiogalactopyranoside. Growth was continued at 16 °C overnight prior to cell harvesting by centrifugation at 10,000 × g for 20 min. Cell pellets were resuspended in buffer A (Additional file 2: Table S4) and subsequently broken by French press treatment at 62.5 lb/in^2. After centrifugation at 20,000 × g for 30 min, the supernatants were loaded onto 5-mL HisTrap HP columns (Amersham Biosciences) equilibrated with buffer A, and the proteins were eluted with a linear gradient of buffer B (Additional file 2: Table S4). All proteins contain a hexa-histidine tag at the N-terminal extension (Additional file 2: Table S3) and were purified at 4 °C. The purified proteins were dialyzed overnight into the corresponding analysis buffers (Additional file 2: Table S4) for immediate analysis.
(§3) All experiments were conducted on a VP microcalorimeter (Microcal, MA) at 15 °C for PacP-LBD and at 20 °C for the remaining proteins. Proteins were dialyzed into the analysis buffers specified in Additional file 2: Table S4, placed into the sample cell and titrated with aliquots of ligand solutions (1 to 10 mM) freshly prepared in dialysis buffer. The mean enthalpies measured from the injection of the ligands into the analysis buffer were subtracted from the raw titration data prior to data analysis with the MicroCal version of ORIGIN. The data were fitted with the “One binding site model” of ORIGIN.

For assay [3], the target named is LBD of chemoreceptor R7 (WP_019915375.1). The assay can be described thus: ITC binding to R7-LBD. On the set-up: species or system Methyloversatilis discipulorum. The following applies: 20 °C, Nb = no binding. How it is done: as §2, §3
The target of assay [4] is LBD of chemoreceptor R4 (WP_158281851.1) (Rivihabitans pingtungensis, UniProt A0A318KJN4). Put plainly: ITC binding to R4-LBD. The following applies: 20 °C, Nb = no binding. Also on record: species or system Rivicola pingtungensis. How it is done: as §2, §3
Assay [5] concerns Bdellovibrio bacteriovorus. On the set-up: method as in PMID 119030, PMID 500565. Conditions: cited from earlier work.
For assay [6], the system named is P. atrosepticum SCRI1043 ΔcheA. Put plainly: Quantitative capillary chemotaxis assay, cheA mutant. The following applies: 1 mM ligand. The format is cell-based, Pectobacterium atrosepticum. How it is done: as §1
Fig. S2) Quantitative capillary chemotaxis assays of different P. atrosepticum SCRI1043 strains to 1 mM Glycerol 3-phosphate (A) and 3-phosphoglycerate (B). […]

As a reminder, the Kd is a measure of binding affinity in units of concentration. A higher Kd goes with weaker binding.

Sequence of LBD of chemoreceptor R7 (WP_019915375.1) (as listed by the source): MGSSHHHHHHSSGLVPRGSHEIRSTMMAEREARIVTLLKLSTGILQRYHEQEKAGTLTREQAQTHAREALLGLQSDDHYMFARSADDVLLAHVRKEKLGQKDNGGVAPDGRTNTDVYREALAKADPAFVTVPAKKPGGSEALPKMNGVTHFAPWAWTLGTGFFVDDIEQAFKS
Sequence of ligand binding domain of the chemoreceptor ECA_RS12390 (PacP-LBD, R1, WP_011094075.1) (Q6D464 entry or part of it): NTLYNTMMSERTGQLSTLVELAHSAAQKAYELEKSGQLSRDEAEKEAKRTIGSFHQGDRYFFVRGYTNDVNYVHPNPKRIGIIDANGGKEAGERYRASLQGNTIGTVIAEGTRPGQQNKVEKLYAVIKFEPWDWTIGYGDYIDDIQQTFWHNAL
Sequence of LBD of chemoreceptor R4 (WP_158281851.1) (A0A318KJN4 entry or part of it): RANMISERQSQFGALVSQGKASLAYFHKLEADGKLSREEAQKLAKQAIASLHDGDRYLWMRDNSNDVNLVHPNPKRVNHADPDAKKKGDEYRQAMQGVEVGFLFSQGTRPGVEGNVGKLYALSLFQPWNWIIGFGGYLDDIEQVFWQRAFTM

As for `O=C(O)[C@@H](O)COP(=O)(O)O` [3-phosphoglycerate], the figures for the “chemotaxis (capillary assay)” value in assay [1] and in assay [6] were “Only glycerol 2-phosphate served as an attractant for the mutant” and “failed to respond”, respectively. For the same molecule, the results for the dissociation constant (Kd) in assay [2] and in assay [4] were 88 ± 5 µM and 926 ± 8 µM, respectively. The KD result in assay [3] was “Nb”. The chemotaxis entry in assay [5] is “weak chemotaxis”.
Regarding `O=P(O)(O)OCC(O)CO` (stereo not shown) [glycerol 3-phosphate], the “chemotaxis (capillary assay)” value is on record as “Only glycerol 2-phosphate served as an attractant for the mutant” in assay [1] and “failed to respond” in assay [6]. Moreover, the Kd in assay [2] worked out at 3 ± 0.2 µM; in assay [4], 7 ± 0.2 µM. Moreover, the figures for the KD result in assay [3] and in assay [3] (listed as Glycerol 3-P) were “bound” and “Nb”, respectively. Besides, in assay [5], the chemotaxis entry is “weak chemotaxis”.
